From ChEMBL document CHEMBL5236579, “Hydrophobicity Determines the Bacterial Killing Rate of α-Helical Antimicrobial Peptides and Influences the Bacterial Resistance Development” (J Med Chem, 2022)
In brackets after ≈: the same amount, converted by molar mass. Activity calls are given as the source filed them. No cut-off for these calls is given here. Where a SMILES comes first, the peptide text is derived from it.

What was measured:
Vibrio parahaemolyticus [1] = assay: Antimicrobial activity against Vibrio parahaemolyticus ATCC17802 by two fold broth microdilution method; format: functional
Bacillus cereus = assay: Antimicrobial activity against clinical isolates Bacillus cereus by two fold broth microdilution method; format: functional
Escherichia coli = assay: Antimicrobial activity against Escherichia coli ATCC27622 by two fold broth microdilution method; format: functional
Staphylococcus aureus [2] = assay: Antimicrobial activity against Staphylococcus aureus ATCC25923 by two fold broth microdilution method; format: functional
Staphylococcus aureus [3] = assay: Antimicrobial activity against clinical isolates Staphylococcus aureus by two fold broth microdilution method; format: functional
Cell membrane [4] = assay: Induction of inner membrane permeabilization in Vibrio parahaemolyticus ATCC17802 assessed as increase in PI fluorescence intensity at 5 times MIC by propidium iodide penetration assay; format: cell membranes; conditions: time <= 200.0 min
Cell membrane [5] = assay: Induction of inner membrane permeabilization in Vibrio parahaemolyticus ATCC17802 at 5 times MIC measured upto 200 mins by propidium iodide penetration assay; format: cell membranes
Cell membrane [6] = assay: Induction of inner membrane permeabilization in Vibrio parahaemolyticus ATCC17802 assessed as calcein leakage at 5 times MIC by calcein-AM leakage assay; format: cell membranes; conditions: time <= 200.0 min, TDE = time-dependent effect
Vibrio parahaemolyticus [7] = assay: Bactericidal activity against Vibrio parahaemolyticus ATCC17802 assessed as killing rate at 0.5 X MIC by measuring time limit of detection by bacterial killing kinetic assay; format: functional

Row | SMILES | MIC (Vibrio parahaemolyticus [1]) | MIC (Bacillus cereus) | MIC (Escherichia coli) | MIC (Staphylococcus aureus [2]) | MIC (Staphylococcus aureus [3]) | Activity (Cell membrane [4]) | MIC (Staphylococcus aureus [2]; read-out: MIC) | Activity (Cell membrane [5]) | Activity (Cell membrane [6]) | Time (Vibrio parahaemolyticus [7])
1 | CC[C@H](C)[C@H](NC(=O)[C@H](CC(C)C)NC(=O)[C@H](CCCNC(=N)N)NC(=O)[C@H](CC(C)C)NC(=O)[C@H](CC(C)C)NC(=O)[C@H](CC(C)C)NC(=O)[C@H](CC(C)C)NC(=O)[C@H](Cc1ccccc1)NC(=O)[C@H](CC(C)C)NC(=O)CNC(=O)[C@@H](N)CC(C)C)C(=O)N[C@@H](CC(C)C)C(=O)N[C@@H](CCCCN)C(=O)NCC(=O)N[C@@H](Cc1ccccc1)C(=O)N[C@@H](CCCCN)C(=O)N[C@@H](CC(C)C)C(=O)O (H-LGLFLLLLRLILKGFKL-OH) | > 200 µg/mL | > 200 µg/mL | > 200 µg/mL | > 200 µg/mL | > 200 µg/mL | – | – | – | – | –
2 | CC[C@H](C)[C@H](NC(=O)[C@H](CC(C)C)NC(=O)[C@H](CCCNC(=N)N)NC(=O)[C@H](CC(C)C)NC(=O)[C@H](CC(C)C)NC(=O)[C@H](CCCCN)NC(=O)[C@H](CCCCN)NC(=O)[C@H](Cc1ccccc1)NC(=O)[C@H](CC(C)C)NC(=O)CNC(=O)[C@@H](N)CCCNC(=N)N)C(=O)N[C@@H](CCCCN)C(=O)N[C@@H](CCCCN)C(=O)NCC(=O)N[C@@H](Cc1ccccc1)C(=O)N[C@@H](CCCCN)C(=O)N[C@@H](CCCCN)C(=O)O (H-RGLFKKLLRLIKKGFKK-OH) | 4.69 µg/mL (≈ 2.26 µM) | 9.38 µg/mL (≈ 4.52 µM) | 4.69 µg/mL (≈ 2.26 µM) | – | 18.8 µg/mL (≈ 9.04 µM) | Active | 2.34 µg/mL (≈ 1.13 µM) | Active | Tde | 60 min
3 | CC[C@H](C)[C@H](NC(=O)[C@H](CCCCN)NC(=O)[C@H](CC(C)C)NC(=O)[C@H](C)NC(=O)CNC(=O)[C@H](CC(N)=O)NC(=O)[C@H](CC(C)C)NC(=O)[C@@H](NC(=O)[C@H](CCCCN)NC(=O)[C@H](CCCCN)NC(=O)[C@H](Cc1c[nH]c2ccccc12)NC(=O)[C@H](Cc1ccccc1)NC(=O)[C@H](CCCCN)NC(=O)[C@H](CCCNC(=N)N)NC(=O)[C@H](CCCNC(=N)N)NC(=O)[C@@H](N)[C@@H](C)O)C(C)C)C(=O)N[C@@H](C)C(=O)N1CCC[C@H]1C(=O)N[C@@H](Cc1ccccc1)C(=O)N[C@@H](CC(C)C)C(=O)N[C@@H](CC(C)C)C(=O)NCC(=O)O (H-TRRKFWKKVLNGALKIAPFLLG-OH) | 4.69 µg/mL (≈ 1.83 µM) | 9.38 µg/mL (≈ 3.67 µM) | 9.38 µg/mL (≈ 3.67 µM) | – | 9.38 µg/mL (≈ 3.67 µM) | – | 2.34 µg/mL (≈ 0.915 µM) | – | – | 15 min
4 | CN[C@H](CC(C)C)C(=O)N[C@H]1C(=O)N[C@@H](CC(N)=O)C(=O)N[C@H]2C(=O)N[C@H]3C(=O)N[C@H](C(=O)N[C@H](C(=O)O)c4cc(O)cc(O)c4-c4cc3ccc4O)[C@H](O)c3ccc(c(Cl)c3)Oc3cc2cc(c3O[C@@H]2O[C@H](CO)[C@@H](O)[C@H](O)[C@H]2O[C@H]2C[C@](C)(N)[C@H](O)[C@H](C)O2)Oc2ccc(cc2Cl)[C@H]1O [VANCOMYCIN] | 75 µg/mL (≈ 51.8 µM) | > 200 µg/mL | 75 µg/mL (≈ 51.8 µM) | – | > 200 µg/mL | – | 0.59 µg/mL (≈ 0.407 µM) | – | – | –
5 | CC[C@H](C)[C@H](NC(=O)[C@H](C)NC(=O)[C@H](CCCNC(=N)N)NC(=O)[C@H](C)NC(=O)[C@H](CC(C)C)NC(=O)[C@H](CCCCN)NC(=O)[C@H](CCCCN)NC(=O)[C@H](Cc1ccccc1)NC(=O)[C@H](CC(C)C)NC(=O)CNC(=O)[C@H](C)N)C(=O)N[C@@H](C)C(=O)N[C@@H](CCCCN)C(=O)NCC(=O)N[C@@H](Cc1ccccc1)C(=O)N[C@@H](CCCCN)C(=O)N[C@@H](C)C(=O)O (H-AGLFKKLARAIAKGFKA-OH) | 4.69 µg/mL (≈ 2.62 µM) | 18.8 µg/mL (≈ 10.5 µM) | 9.38 µg/mL (≈ 5.24 µM) | – | 18.8 µg/mL (≈ 10.5 µM) | – | 9.38 µg/mL (≈ 5.24 µM) | – | – | >180 min
6 | CC[C@H](C)[C@H](NC(=O)[C@H](CCCCN)NC(=O)[C@H](CCCNC(=N)N)NC(=O)[C@H](CCCNC(=N)N)NC(=O)[C@H](CC(C)C)NC(=O)[C@H](CCCCN)NC(=O)[C@H](CCCCN)NC(=O)[C@H](Cc1ccccc1)NC(=O)[C@H](CC(C)C)NC(=O)CNC(=O)[C@@H](N)CCCNC(=N)N)C(=O)N[C@@H](CCCCN)C(=O)N[C@@H](CCCCN)C(=O)NCC(=O)N[C@@H](Cc1ccccc1)C(=O)N[C@@H](CCCCN)C(=O)N[C@@H](CCCCN)C(=O)O (H-RGLFKKLRRKIKKGFKK-OH) | 4.69 µg/mL (≈ 2.2 µM) | 9.38 µg/mL (≈ 4.4 µM) | 18.8 µg/mL (≈ 8.8 µM) | – | 18.8 µg/mL (≈ 8.8 µM) | Active | 4.69 µg/mL (≈ 2.2 µM) | – | – | >180 min
